Test system: BALB/cByJ CRL mice
Test: SCFA production in caecum content of mice fed low-fiber diets enriched with 5% of tested fibers, measured by Gas-Liquid Chromatography
Assay type: in vivo
Details: 5 wt % fiber, versus low-fiber diet only
Excerpt: 5 week old females BALB/cByJ CRL mice from Charles River were split into several groups and fed during 6 weeks based on the following protocol: • Week 1: low-fiber diet (composition is detailed in table 2) for all groups • Weeks 2 to 6: • Control group (group A): low-fiber diet (same as for week 1) • Test groups (groups B-D): low-fiber diet (same as for week 1) supplemented with 5 wt % of a tested fiber (5% of the total low fiber diet was replaced by 5% of a tested fiber)
The following fibers were tested: • BMOs=bovine milk oligosaccharides: an oligosaccharide mixture comprising 99.3% of GOS, 0.2% of N-acetylated oligosaccharide and 0.5% sialylated oligosaccharide was tested • PDX=polydextrose • Pectin
After 6 weeks, the animals of each group were sacrificed and the content from caecum was collected. The SOFA production were measured by Gas-Liquid Chromatography (GLC; amounts of SOFA in nmol/mg dry weight). The following SOFA were measured: propionate, butyrate, valerate and acetate.
The measure was made based on the following protocol: SOFA in an acid solution (pH 2.0 to 3.0) were separated on a GLC column coated with a polar stationary phase. […] After centrifugation, the sterile-filtered supernatant was ready for analysis by GLC. SOFA were measured simultaneously.
Median ratio values were calculated in order to compare the different fiber-enriched diets on SOFA production.

Substance	Caecal SCFA production (acetate, propionate, butyrate, valerate) compared with low-fiber diet
polydextrose [PDX]	less SOFA release of all kinds
Pectin	less SOFA release of all kinds

— patent publication US20190046545A1, “COMPOSITIONS WITH SPECIFIC OLIGOSACCHARIDES TO PREVENT LATER IN LIFE OBESITY OR RELATED COMORBIDITIES, BY INCREASING COLONIC SCFA PRODUCTION AND/OR BY INCREASING GLP-1 SECRETION” (NESTEC S.A., priority 2016, published 2019)
